Reference: patent publication US6113907A, “Pharmaceutical grade St. John's Wort” (priority 1997, dated 2000)
Where two headings read alike, the source gives them in different places.

Tests used:
NMDA = test: Receptor Binding by Hypericin, NMDA
Protocol: Through an NIMH screening contract (NovaScreen™, Baltimore, Md.) a commercially available crude extract from the fresh flowers and buds of Hypericum perforatum [1:1.5; hydro-alcohol (40:60) made from flowering tops; Herb Pharm] containing ~0.1% hypericin was dried under vacuum, dissolved in 4% DMSO, and diluted to an initial concentration of 50 mg/ml for in vitro screening in a battery of 39 receptor assays and two enzyme systems (Table 5, below).

[1] = tested on: human immunodeficiency virus type 1 (HIV-1); settings: cited from earlier work
Nitric oxide synthetase = test: nitric oxide synthetase binding (NOS), [3H] NOARG, rat brain membranes; settings: 10^-4; 60 min, 100 µM
Protocol: The inhibition of MAOA enzymatic activity (MAOA) was determined using rat liver mitochondrial membranes as a partially purified enzyme source. […] The reaction involves the conversion of the substrate to [^14 C] 5-hydroxyl indoleacetaldehyde+NH4^+. In brief, the enzyme is preincubated with the substances and the subtype specific blocker deprenyl (at 300 nM) for 60 minutes at 37° C. in 100 mM KPO4 (pH 7.2). Substrate is added and incubated for an additional 10 minutes. The reaction is terminated by the addition of 0.5 ml of 2M citric acid. […] Nitric oxide synthetase activity was measured using a binding assay (NOS). The receptors were made by partial purification of material from rat brain membranes. The radioligand used was [^3 H] L-N^G -Nitro-Arginine (NOARG) at a final concentration of 5 nM. Non-specific binding was determined using 100 μM of NOARG. The assay reactions were carried out in 50 mM Tris-HCl (pH 7.4) for 60 minutes at 25° C.

stability = type: physicochemical; settings: our data
Description: Some botanicals, such as St. John's Wort, are both temperature and light sensitive. For this type of botanical the material should be dry packed with a refrigerant or shipped under refrigeration and protected from light and air. […] Stability (in absence of air) was increased to six months in a preparation extracted with ethanol.
Phloroglucinola include hyperforin (prenylated derivative of phloroglucinol), adhyperforin (similar to the bitter principle of hops, adhumulone).

GABAA receptor = test: GABAA agonist site binding assay, [3H]-GABA, bovine cerebellar membranes; settings: 10^-4 M
Protocol: The reference literature compounds for this assay include diazepam and muscimol (Sigma Chemical Company).
The reaction is terminated by rapid vacuum filtration onto glass fiber filters. Radioactivity trapped onto the filters is determined and compared to control values in order to ascertain any interactions of test compound with the GABAA receptor.

protein kinase C = settings: cited from earlier work
[2] = tested on: equine infectious anemia virus; settings: cited from earlier work
opiate receptor = opiate receptor non-selective, [3H] naloxone, rat forebrain; type: binding
Protocol: To determine the inhibitory activity of the substances for the dopamine receptor (dp) the following assay was preformed. A partial receptor preparation was prepared from bovine striatal membranes using [^3 H] spiperone as the ligand at a final concentration of 0.3 nM. To determine non-specific binding cold spiperone was tested at 1 μM. The reactions were carried out in 50 mM Tris-HCl (pH 7.7) containing 120 mM NaCl, 5 mM KCl, 2 mM CaCl2 and 1 mM MgCl2 at 37° C. for 60 minutes. […] The inhibitory properties of the substances for binding of ligand to the adenosine receptor (ADNS) was measured using a partially purified receptor preparation made from bovine striatal membranes. The radioligand used was [^3 H] 5'-N-ethylcarboxyamidoadenosine (NECA) at a final ligand concentration of 4 nM. Non-specific binding was determined in the presence of 10 μM NECA. The reactions were carried out in 50 mM Tris-HCL (pH 7.7) for 60 minutes at 25° C. […] To measure the inhibitory activity of the substances for the opiate receptor (Opiate) receptor was partially purified from rat forebrains. [^3 H] naloxone at 1 nM as the ligand used. Non-specific binding was determined in the presence of 1 μM of naloxone. […] Non-specific binding was determined in the presence of 1 μM nicotine sulfate. […] Non-specific binding was determined in the presence of 1 μM Tyr-° CRF. […]

adenosine receptor = adenosine receptor non-selective (ADNS), [3H] NECA, bovine striatal membranes; type: binding
Protocol: To determine the inhibitory activity of the substances for the dopamine receptor (dp) the following assay was preformed. A partial receptor preparation was prepared from bovine striatal membranes using [^3 H] spiperone as the ligand at a final concentration of 0.3 nM. To determine non-specific binding cold spiperone was tested at 1 μM. The reactions were carried out in 50 mM Tris-HCl (pH 7.7) containing 120 mM NaCl, 5 mM KCl, 2 mM CaCl2 and 1 mM MgCl2 at 37° C. for 60 minutes. […] The inhibitory properties of the substances for binding of ligand to the adenosine receptor (ADNS) was measured using a partially purified receptor preparation made from bovine striatal membranes. The radioligand used was [^3 H] 5'-N-ethylcarboxyamidoadenosine (NECA) at a final ligand concentration of 4 nM. Non-specific binding was determined in the presence of 10 μM NECA. The reactions were carried out in 50 mM Tris-HCL (pH 7.7) for 60 minutes at 25° C. […] To measure the inhibitory activity of the substances for the opiate receptor (Opiate) receptor was partially purified from rat forebrains. [^3 H] naloxone at 1 nM as the ligand used. Non-specific binding was determined in the presence of 1 μM of naloxone. The assays were carried out in 50 mM Tris-HCl (pH 7.4) at 25° C. for 90 minutes. […] The neuronal nicotinic receptor (Nicotinic Neuronal) was assayed using receptors partially purified from rat cortical membranes. The radioligand used was [^3 H] N-methylcarbamylcholine iodide at a final ligand concentration of 5 nM. Non-specific binding was determined in the presence of 1 μM nicotine sulfate. The assay reactions were carried out in 50 mM Tris-HCl (pH 7.4) containing 120 mM NaCl, 5 mM KCl, 2 mM CaCl2, 1 mM MgCl2, and 3 μM atropine sulfate at 4° C. for 60 minutes. […] To determine how the substances inhibit the corticotropin releasing factor (CRF) partially purified receptor from rat cortical membranes was used as the receptor preparation. […] Tyr-° CRF at a final ligand concentration of 0.1 nM. Non-specific binding was determined in the presence of 1 μM Tyr-° CRF. The reactions were carried out in 50 mM HEPES containing 10 mM MgCl2, 2 mM EGTA, 0.12 TIU/ml aprotinin and 0.3% BSA at 25° C. for 120 minutes. The reaction is terminated by centrifugation in a Sorvall centrifuge for 15 minutes at 4° C.

[3] = mice; cited from earlier work

Cc1cc(O)c2c(=O)c3c(O)cc(O)c4c5c(O)cc(O)c6c(=O)c7c(O)cc(C)c8c1c2c(c34)c(c78)c65 [Hypericin, hypericin]
% Inhibition NMDA (NMDA; 1 μM): 48.5%
% Inhibition NMDA (NMDA; 10 μM): 81.7%
% Inhibition NMDA (NMDA; 100 μM): -20.7%
% Inhibition NMDA (NMDA; .001 μM): 10.5%
% Inhibition NMDA (NMDA; .01 μM): 24.5%
% Inhibition NMDA (NMDA; .1 μM): -0.3%
Ki (NMDA; read-out: Ki NMDA): ~1 µM
Ki (NMDA; read-out: ~Ki NMDA (Table 7)): ~1.1 µM
inhibition of HIV-1 [1]: inhibit
NOS (Nitric oxide synthetase): 48%
stability in solution (stability): unstable in solution
GABAA % inhibition (PharmaPrint range) (GABAA receptor): 30 ± 15%
protein kinase C IC50 (protein kinase C): 1.7 mg/L
activity against equine infectious anemia virus [2]: Activity has also been reported
OPNS (opiate receptor; 10^-4, Table 9I, 100 µM): 44%
Opiate NS % inhibition (PharmaPrint range) (opiate receptor; 10^-4 M): 70 ± 35%
ADNS (adenosine receptor; 10^-4, 60 min, 100 µM): 70%
AD,NS % inhibition (PharmaPrint range) (adenosine receptor; 10^-4 M): 70 ± 20%
antiviral activity in vivo [3]: show antiviral activity in vivo (mice)
